# Laboratory results as given in patent publication US7704995B2 (Exelixis, Inc., priority 2003, dated 2010).
# Like-named read-outs stand apart in the source and are kept apart here.
# Target: T1, Chk1 (Homo sapiens, UniProt O14757)
# T1 construct: purchased Upstate Biotechnology
# T1 sequence (O14757 1-476): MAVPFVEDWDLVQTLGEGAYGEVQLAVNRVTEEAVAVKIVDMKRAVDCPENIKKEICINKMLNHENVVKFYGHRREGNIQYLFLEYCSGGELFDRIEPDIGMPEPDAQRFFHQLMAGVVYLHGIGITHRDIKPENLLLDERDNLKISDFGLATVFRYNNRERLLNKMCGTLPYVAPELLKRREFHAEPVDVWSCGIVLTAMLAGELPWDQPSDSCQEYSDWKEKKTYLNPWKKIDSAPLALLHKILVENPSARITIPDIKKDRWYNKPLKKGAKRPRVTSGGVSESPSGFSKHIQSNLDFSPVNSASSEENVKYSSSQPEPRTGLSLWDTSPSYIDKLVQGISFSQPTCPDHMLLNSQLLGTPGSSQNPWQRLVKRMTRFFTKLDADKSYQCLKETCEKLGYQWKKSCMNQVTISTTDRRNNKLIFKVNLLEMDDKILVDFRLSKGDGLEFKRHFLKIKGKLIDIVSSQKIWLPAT
# Test: Chk1 kinase assay: incorporation of γ-33P ATP into immobilized myelin basic protein
# Assay type: biochemical
# Conditions: read-out: Chk1 IC50
# In short: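 Chk1 (10 nM) or Chk2 (20 nM) phosphorylated plate-immobilized myelin basic protein for 1 h at room temperature in Hepes pH 7.6 buffer with MgCl2, DTT, 1% DMSO, γ-33P ATP plus 10 μM (Chk1) or 30 μM (Chk2) unlabeled ATP. Bound radioactivity counted by scintillation; IC50 determined, Ki derivable from IC50.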
# [1] = Table 11, Chk1 only, class symbols A-D
IC50,"IC50 (Table 11, Chk1 only)",SMILES,further results
0.05 to 1 µM,–,"CNC(=O)c1nc(-c2cccc(C(=O)NCc3cc(OC)c(OC)c(OC)c3)c2)cnc1N [Example 162, 3-amino-N-methyl-6-{3-[({[3,4,5-tris(methyloxy)phenyl]methyl}amino)carbonyl]phenyl}pyrazine-2-carboxamide]",–
–,< 0.05 µM,"Nc1ncc(-c2cccc(CN[C@H]3CCc4ccccc43)c2)nc1-c1nc(-c2ccncc2)n[nH]1 [Example 723, 5-(3-{[(1S)-2,3-dihydro-1H-inden-1-ylamino]methyl}phenyl)-3-(3-pyridin-4-yl-1H-1,2,4-triazol-5-yl)pyrazin-2-amine]",–
0.05 to 1 µM,–,"CNC(=O)c1nc(-c2cccc(CNCc3ccc(-c4ccccc4)cc3)c2)cnc1N [Example 382, 3-amino-6-(3-{[(biphenyl-4-ylmethyl)amino]methyl}phenyl)-N-methylpyrazine-2-carboxamide]",–
–,0.05 to 1 µM,"CNC(=O)c1nc(-c2cccc(CN[C@H]3c4ccccc4C[C@H]3OC)c2)cnc1N [Example 460, 3-amino-N-methyl-6-[3-({[(1S,2R)-2-(methyloxy)-2,3-dihydro-1H-inden-1-yl]amino}methyl)phenyl]pyrazine-2-carboxamide]",–
0.05 to 1 µM,–,"CNC(=O)c1nc(-c2cccc(CNCc3cc(Cl)ccc3Cl)c2)cnc1N [Example 408, 3-amino-6-[3-({[(2,5-dichlorophenyl)methyl]amino}methyl)phenyl]-N-methylpyrazine-2-carboxamide]",–
–,≥ 10 µM,"N=C(NNc1nc2ccccc2s1)c1nc(-c2cccc(C(=O)NCc3ccccc3)c2)cnc1N [Example 669, 3-{5-amino-6-[[2-(1,3-benzothiazol-2-yl)hydrazino](imino)methyl]pyrazin-2-yl}-N-(phenylmethyl)benzamide]",–
1 to 10 µM,–,"CNC(=O)c1nc(-c2cccc(C(=O)NC(C)(C)C)c2)cnc1N [Example 139, 3-amino-6-(3-{[(1,1-dimethylethyl)amino]carbonyl}phenyl)-N-methylpyrazine-2-carboxamide]",–
≥ 10 µM,–,"CCCNc1ncc(-c2ccccc2)nc1C(N)=O [Example 40, 6-phenyl-3-(propylamino)pyrazine-2-carboxamide]",–
≥ 10 µM,–,"CNC(=O)c1nc(-c2cccc(NC(=O)O[C@@H]3C[C@H](C)CC[C@H]3C(C)C)c2)cnc1N [Example 322, (1R,2S,5R)-5-methyl-2-(1-methylethyl)cyclohexyl (3-{5-amino-6-[(methylamino)carbonyl]pyrazin-2-yl}phenyl)carbamate]",–
–,1 to 10 µM,"Nc1ncc(-c2cccc(CN[C@H]3CCc4ccccc43)c2)nc1C(=O)NCCCN1CCCC1 [Example 598, 3-amino-6-(3-{[(1S)-2,3-dihydro-1H-inden-1-ylamino]methyl}phenyl)-N-(3-pyrrolidin-1-ylpropyl)pyrazine-2-carboxamide]",–
–,–,"Cc1cc(Cl)ccc1CNC(=O)c1cccc(-c2cnc(N)c(C(=O)N[C@H]3CCCNC3)n2)c1 [Example 857, 3-amino-6-[3-({[(4-chloro-2-methylphenyl)methyl]amino}carbonyl)phenyl]-N-[(3S)-piperidin-3-yl]pyrazine-2-carboxamide]",IC50 [1]: < 0.05 µM
–,≥ 10 µM,"CC(C)(C)OC(=O)N1CC[C@H](NC(=O)c2nc(-c3cccc(C(=O)N4CCc5ccccc5C4)c3)cnc2N)C1 [Example 711, 1,1-dimethylethyl (3S)-3-[({3-amino-6-[3-(3,4-dihydroisoquinolin-2(1H)-ylcarbonyl)phenyl]pyrazin-2-yl}carbonyl)amino]pyrrolidine-1-carboxylate]",–
–,–,"Nc1ncc(-c2cccc(NC(=O)Cc3ccc(Cl)cc3)c2)nc1C(=O)N[C@H]1CCCNC1 [Example 885, 3-amino-6-(3-{[(4-chlorophenyl)acetyl]amino}phenyl)-N-[(3S)-piperidin-3-yl]pyrazine-2-carboxamide]",IC50 [1]: < 0.05 µM
–,1 to 10 µM,"Cc1nc(-c2nc(-c3cccc(C(=O)NCc4ccccc4)c3)cnc2N)nn1-c1ccccn1 [Example 702, 3-[5-amino-6-(5-methyl-1-pyridin-2-yl-1H-1,2,4-triazol-3-yl)pyrazin-2-yl]-N-(phenylmethyl)benzamide]",–
0.05 to 1 µM,–,"CNC(=O)c1nc(-c2cccc(C(=O)NCCc3ccc(F)cc3)c2)cnc1N [Example 131, 3-amino-6-[3-({[2-(4-fluorophenyl)ethyl]amino}carbonyl)phenyl]-N-methylpyrazine-2-carboxamide]",–
–,0.05 to 1 µM,"CCN(Cc1ccccc1)Cc1cccc(-c2cnc(N)c(C(=O)NC)n2)c1 [Example 439, 3-amino-6-(3-{[ethyl(phenylmethyl)amino]methyl}phenyl)-N-methylpyrazine-2-carboxamide]",–

IC50,"IC50 (Table 11, Chk1 only)",SMILES,further results
–,0.05 to 1 µM,"Nc1ncc(-c2cccc(C(=O)NCc3ccccc3)c2)nc1C(=O)NC1CCNC1 (centres unmarked) [Example 568, 3-amino-6-(3-{[(phenylmethyl)amino]carbonyl}phenyl)-N-pyrrolidin-3-ylpyrazine-2-carboxamide]",–
–,0.05 to 1 µM,"CC(C)(C)OC(=O)N1CC[C@H](NC(=O)c2nc(-c3cccc(C(=O)NC4Cc5ccccc5C4)c3)cnc2N)C1 [Example 742, 1,1-dimethylethyl (3S)-3-{[(3-amino-6-{3-[(2,3-dihydro-1H-inden-2-ylamino)carbonyl]phenyl}pyrazin-2-yl)carbonyl]amino}pyrrolidine-1-carboxylate]",–
–,–,"CN(C)c1ccc(C(=O)Nc2cccc(-c3cnc(N)c(C(=O)N[C@H]4CCCNC4)n3)c2)c2ccccc12 [Example 900, 3-amino-6-[3-({[4-(dimethylamino)naphthalen-1-yl]carbonyl}amino)phenyl]-N-[(3S)-piperidin-3-yl]pyrazine-2-carboxamide]",IC50 [1]: < 0.05 µM
–,1 to 10 µM,"Nc1ncc(-c2cccc(CNC3CCc4ccccc43)c2)nc1C(=O)NC1CCCCC1 (centres unmarked) [Example 533, 3-amino-N-cyclohexyl-6-{3-[(2,3-dihydro-1H-inden-1-ylamino)methyl]phenyl}pyrazine-2-carboxamide]",–
–,1 to 10 µM,"CCN1CCCC(c2nnc(-c3nc(-c4cccc(CO)c4)cnc3N)[nH]2)C1 (centres unmarked) [Example 732, (3-{5-amino-6-[5-(1-ethylpiperidin-3-yl)-4H-1,2,4-triazol-3-yl]pyrazin-2-yl}phenyl)methanol]",–
–,–,"Nc1ncc(-c2cccc(CNC(=O)c3ncccc3O)c2)nc1C(=O)N[C@H]1CCCNC1 [Example 987, 3-amino-6-[3-({[(3-hydroxypyridin-2-yl)carbonyl]amino}methyl)phenyl]-N-[(3S)-piperidin-3-yl]pyrazine-2-carboxamide]",IC50 [1]: < 0.05 µM
0.05 to 1 µM,–,"CNC(=O)c1nc(-c2cccc(C(=O)NCc3c(Cl)ccc(C)c3F)c2)cnc1N [Example 301, 3-amino-6-[3-({[(6-chloro-2-fluoro-3-methylphenyl)methyl]amino}carbonyl)phenyl]-N-methylpyrazine-2-carboxamide]",–
0.05 to 1 µM,–,"CNC(=O)c1nc(-c2cccc(OCCN3CCc4ccccc4C3)c2)cnc1N [Example 194, 3-amino-6-(3-{[2-(3,4-dihydroisoquinolin-2(1H)-yl)ethyl]oxy}phenyl)-N-methylpyrazine-2-carboxamide]",–
0.05 to 1 µM,–,"CNC(=O)c1nc(-c2cccc(C(=O)NCc3cccnc3)c2)cnc1N [Example 122, 3-amino-N-methyl-6-(3-{[(pyridin-3-ylmethyl)amino]carbonyl}phenyl)pyrazine-2-carboxamide]",–
–,0.05 to 1 µM,"CN(C)CCNC(=O)c1nc(-c2cccc(CN[C@H]3CCc4ccccc43)c2)cnc1N [Example 556, 3-amino-6-(3-{[(1S)-2,3-dihydro-1H-inden-1-ylamino]methyl}phenyl)-N-[2-(dimethylamino)ethyl]pyrazine-2-carboxamide]",–
0.05 to 1 µM,–,"CNC(=O)c1nc(-c2cccc(C(=O)NCc3ccc4ccccc4c3)c2)cnc1N [Example 169, 3-amino-N-methyl-6-(3-{[(naphthalen-2-ylmethyl)amino]carbonyl}phenyl)pyrazine-2-carboxamide]",–
–,–,"Nc1ncc(-c2cccc(CNS(=O)(=O)c3ccsc3)c2)nc1C(=O)N[C@H]1CCCNC1 [Example 954, 3-amino-N-[(3S)-piperidin-3-yl]-6-(3-{[(3-thienylsulfonyl)amino]methyl}phenyl)pyrazine-2-carboxamide]",IC50 [1]: < 0.05 µM
0.05 to 1 µM,–,"CNC(=O)c1nc(-c2cccc(C(=O)NCc3ccc(OC)c(OC)c3)c2)cnc1N [Example 371, 3-amino-6-{3-[({[3,4-bis(methyloxy)phenyl]methyl}amino)carbonyl]phenyl}-N-methylpyrazine-2-carboxamide]",–
–,–,"Nc1ncc(-c2cccc(C(=O)NCc3cccc(F)c3F)c2)nc1C(=O)N[C@H]1CCCCNC1 [Example 1007, 3-amino-N-[(3S)-azepan-3-yl]-6-[3-({[(2,3-difluorophenyl)methyl]amino}carbonyl)phenyl]pyrazine-2-carboxamide]",IC50 [1]: < 0.05 µM
–,0.05 to 1 µM,"Nc1ncc(-c2cccc(C(=O)NCc3ccccc3)c2)nc1C(=O)NC1CCNCC1 [Example 564, 3-amino-6-(3-{[(phenylmethyl)amino]carbonyl}phenyl)-N-piperidin-4-ylpyrazine-2-carboxamide]",–
–,–,"Nc1ncc(-c2cccc(C(=O)NCc3cccc(F)c3F)c2)nc1C(=O)N[C@H]1CCCNC1 [Example 1017, 3-amino-6-[3-({[(2,3-difluorophenyl)methyl]amino}carbonyl)phenyl]-N-[(3S)-piperidin-3-yl]pyrazine-2-carboxamide]",IC50 [1]: < 0.05 µM
